Patent publication US11524966B1 (Valo Early Discovery, Inc., priority 2017, dated 2022)

target: T1, USP25 (USP25-His6, Boston Biochem E-546) (Homo sapiens, UniProt Q9UHP3); assay: Ubiquitin-Rhodamine 110 Assay for USP25 Activity, Example A-2; format: biochemical; conditions: Ubiquitin-Rhodamine 110 assay, Example A-2; read-out: USP25 A-2 IC50 range
T1 construct: His6; purchased Boston Biochem E-546
T1 sequence (Q9UHP3 1-1055): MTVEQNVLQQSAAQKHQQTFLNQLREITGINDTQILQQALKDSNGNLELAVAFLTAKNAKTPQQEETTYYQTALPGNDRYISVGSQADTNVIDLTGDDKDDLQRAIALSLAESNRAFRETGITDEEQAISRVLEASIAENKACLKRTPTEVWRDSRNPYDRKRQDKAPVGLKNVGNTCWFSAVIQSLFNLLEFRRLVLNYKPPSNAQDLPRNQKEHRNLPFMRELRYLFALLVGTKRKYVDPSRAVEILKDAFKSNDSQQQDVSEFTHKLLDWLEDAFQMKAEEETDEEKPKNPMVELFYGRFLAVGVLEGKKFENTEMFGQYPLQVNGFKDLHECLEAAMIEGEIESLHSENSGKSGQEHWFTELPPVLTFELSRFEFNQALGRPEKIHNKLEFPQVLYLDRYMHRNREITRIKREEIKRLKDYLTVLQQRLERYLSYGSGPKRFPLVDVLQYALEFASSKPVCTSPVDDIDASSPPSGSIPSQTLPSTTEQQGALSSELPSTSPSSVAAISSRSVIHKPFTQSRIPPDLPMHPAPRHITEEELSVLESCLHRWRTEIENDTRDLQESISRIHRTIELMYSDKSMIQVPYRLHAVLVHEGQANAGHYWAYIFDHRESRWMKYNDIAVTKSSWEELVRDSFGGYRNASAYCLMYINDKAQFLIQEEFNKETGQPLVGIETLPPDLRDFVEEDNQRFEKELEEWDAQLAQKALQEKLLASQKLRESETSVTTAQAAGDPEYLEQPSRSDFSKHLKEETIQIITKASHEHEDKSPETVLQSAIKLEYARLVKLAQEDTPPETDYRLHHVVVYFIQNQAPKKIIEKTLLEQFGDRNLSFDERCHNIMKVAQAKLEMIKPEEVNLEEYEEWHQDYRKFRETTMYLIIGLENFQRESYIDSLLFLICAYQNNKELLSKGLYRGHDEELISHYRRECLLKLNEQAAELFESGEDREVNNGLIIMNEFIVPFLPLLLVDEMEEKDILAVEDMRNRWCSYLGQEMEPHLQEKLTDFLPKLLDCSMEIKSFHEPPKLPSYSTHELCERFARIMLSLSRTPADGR
In short: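 Read-out: Rh110 fluorescence (ex 485, em 535 nm) after 45 min RT turnover of 25 nM Ub-Rh110 by 75 pM USP25-His6, quenched with 10 mM citric acid. Compounds at 25 μM–1.3 nM, preincubated 30 min with enzyme. IC50 from 4-parameter logistic fit.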

Row | SMILES | IC50 [µM]
1 | Cc1cnc2c(N)c(C(=O)N[C@H]3CCc4cc(N5CCNC[C@@H](O)C5)ccc4C3)sc2n1 (single isomer, unassigned) [Example 7-4] | 0.2 to 2
2 | Cc1cnc2c(N)c(C(=O)N[C@@H]3CCc4cc(N5CCNC[C@@H](O)C5)ccc4C3)sc2n1 (single isomer, unassigned) [Example 7-5] | 0.2 to 2
3 | Cc1cnc2c(N)c(C(=O)N[C@H]3CCc4cc(N5CCNC[C@H](O)C5)ccc4C3)sc2n1 (single isomer, unassigned) [Example 7-6] | > 2
4 | Cc1cnc2c(N)c(C(=O)N[C@@H]3CCc4cc(N5CCNC[C@H](O)C5)ccc4C3)sc2n1 (single isomer, unassigned) [Example 7-7] | > 2
5 | Cc1ccc2c(N)c(C(=O)N[C@H]3CCc4cc(N5CCN[C@H](CO)C5)ccc4C3)sc2n1 (single isomer, unassigned) [Example 7-8] | > 2
6 | Cc1ccc2c(N)c(C(=O)N[C@H]3CCc4cc(N5CCN[C@@H](CO)C5)ccc4C3)sc2n1 (single isomer, unassigned) [Example 7-9] | > 2
7 | Cc1ccc2c(N)c(C(=O)N[C@@H]3CCc4cc(N5CCN[C@H](CO)C5)ccc4C3)sc2n1 (single isomer, unassigned) [Example 7-10] | 0.2 to 2
8 | Cc1ccc2c(N)c(C(=O)N[C@@H]3CCc4cc(N5CCN[C@@H](CO)C5)ccc4C3)sc2n1 (single isomer, unassigned) [Example 7-11] | 0.2 to 2
9 | Cc1ccc2c(N)c(C(=O)N[C@H]3COc4cc(O[C@@H]5COC6(CNC6)C5)ccc4C3)sc2n1 (single isomer, unassigned) [Example 9-1] | 0.05 to 0.2
10 | Cc1ccc2c(N)c(C(=O)N[C@H]3COc4cc(O[C@H]5COC6(CNC6)C5)ccc4C3)sc2n1 (single isomer, unassigned) [Example 9-2] | 0.05 to 0.2
11 | CO[C@H]1CN(c2cc(F)c3c(c2)OC[C@H](NC(=O)c2sc4nc(C)ccc4c2N)C3)C[C@@H]1N (single isomer, unassigned) [Example 10-3] | 0.2 to 2
12 | Cc1nc2sc(C(=O)N[C@H]3CCc4cc(N5CC6CCC(C5)N6)ccc4C3)c(N)c2cc1F (single isomer, unassigned) [Example 11-3] | 0.2 to 2
13 | Cc1nc2sc(C(=O)N[C@@H]3CCc4cc(N5CC6CCC(C5)N6)ccc4C3)c(N)c2cc1F (single isomer, unassigned) [Example 11-4] | 0.05 to 0.2
14 | COc1ccc2c(N)c(C(=O)N[C@H]3CCc4cc(N5CC6CCC(C5)N6)ccc4C3)sc2n1 (single isomer, unassigned) [Example 11-5] | 0.2 to 2
15 | COc1ccc2c(N)c(C(=O)N[C@@H]3CCc4cc(N5CC6CCC(C5)N6)ccc4C3)sc2n1 (single isomer, unassigned) [Example 11-6] | > 2
16 | Cc1cnc2c(N)c(C(=O)N[C@H]3CCc4cc(N5CC6CCC(C5)N6)ccc4C3)sc2n1 (single isomer, unassigned) [Example 11-7] | 0.2 to 2
17 | Cc1cnc2c(N)c(C(=O)N[C@@H]3CCc4cc(N5CC6CCC(C5)N6)ccc4C3)sc2n1 (single isomer, unassigned) [Example 11-8] | > 2
18 | CCn1ccc2cc(C(=O)N[C@H]3CCc4cc(N5CC6CCC(C5)N6)ccc4C3)cnc21 (single isomer, unassigned) [Example 11-9] | > 2
19 | CCn1ccc2cc(C(=O)N[C@@H]3CCc4cc(N5CC6CCC(C5)N6)ccc4C3)cnc21 (single isomer, unassigned) [Example 11-10] | 0.2 to 2
20 | Cc1ccc2c(N)c(C(=O)N[C@H]3CCc4cc(N5CCNCC5)cc(F)c4C3)sc2n1 (single isomer, unassigned) [Example 11-11] | > 2
21 | Cc1ccc2c(N)c(C(=O)N[C@@H]3CCc4cc(N5CCNCC5)cc(F)c4C3)sc2n1 (single isomer, unassigned) [Example 11-12] | 0.2 to 2
22 | Cc1cnc2c(N)c(C(=O)N[C@H]3CCc4cc(N5CC6CCC(C5)N6)cc(F)c4C3)sc2n1 (single isomer, unassigned) [Example 11-13] | > 2
23 | Cc1cnc2c(N)c(C(=O)N[C@@H]3CCc4cc(N5CC6CCC(C5)N6)cc(F)c4C3)sc2n1 (single isomer, unassigned) [Example 11-14] | 0.2 to 2
24 | Cc1ccc2c(N)c(C(=O)N[C@@H]3COc4cc(N5CCNCC5)ccc4[C@@H]3C)sc2n1 (single isomer, unassigned) [Example 11-18] | > 2
25 | CCn1ccc2cc(C(=O)N[C@@H]3CCc4cc(N5CC6CCC(C5)N6)ccc4C3)nnc21 (single isomer, unassigned) [Example 11-23] | > 2
26 | CCn1ccc2cc(C(=O)N[C@H]3CCc4cc(N5CC6CCC(C5)N6)ccc4C3)nnc21 (single isomer, unassigned) [Example 11-24] | > 2

same assay, conditions: Ubiquitin-Rhodamine 110 assay, format Example A-2; read-out: USP25 A-2 IC50 range

Row | SMILES | IC50 [µM]
27 | Cc1ccc2c(N)c(C(=O)N[C@H]3CCc4cc(N5C6CNCC5C6)ccc4C3)sc2n1 (single isomer, unassigned) [Example 11-35] | 0.2 to 2
28 | Cc1ccc2c(N)c(C(=O)N[C@@H]3CCc4cc(N5C6CNCC5C6)ccc4C3)sc2n1 (single isomer, unassigned) [Example 11-36] | 0.2 to 2
29 | Cc1nc2sc(C(=O)N[C@H]3CCc4cc(N5CC6CCC(C5)N6)ccc4C3)c(N)c2s1 (single isomer, unassigned) [Example 12-1] | > 2
30 | Cc1ccc2c(N)c(C(=O)N[C@H]3COc4c(F)c(N5CC6CCC(C5)N6)cc(F)c4C3)sc2n1 (single isomer, unassigned) [Example 13-1] | 0.05 to 0.2
31 | Cc1ccc2c(N)c(C(=O)N[C@@H]3COc4c(F)c(N5CC6CCC(C5)N6)cc(F)c4C3)sc2n1 (single isomer, unassigned) [Example 13-2] | > 2
32 | Cc1ccc2c(N)c(C(=O)N[C@@H]3COc4cc(N5CCNCC5)c(Cl)cc4C3)sc2n1 (single isomer, unassigned) [Example 13-6] | 0.05 to 0.2
33 | Cc1nc2sc(C(=O)N[C@@H]3CCc4c(C#N)c(N5CC6CCC(C5)N6)cc(F)c4C3)c(N)c2s1 (single isomer, unassigned) [Example 14-22] | > 2
34 | Cc1ccc2c(N)c(C(=O)N[C@@H]3CCc4cc(N5CCNCC5)cnc4C3)sc2n1 (single isomer, unassigned) [Example 15-1] | > 2
35 | Cc1ccc2c(N)c(C(=O)N[C@H]3CCc4cc(N5CCNCC5)cnc4C3)sc2n1 (single isomer, unassigned) [Example 15-2] | > 2
36 | Cc1ccc2c(N)c(C(=O)N[C@@H]3CCc4c(ccc(N5CC6CCC(C5)N6)c4F)C3)sc2n1 (single isomer, unassigned) [Example 21-1] | > 2
37 | Cc1ccc2c(N)c(C(=O)N[C@H]3CCc4c(ccc(N5CC6CCC(C5)N6)c4F)C3)sc2n1 (single isomer, unassigned) [Example 21-2] | 0.2 to 2
38 | Cc1ccc2c(N)c(C(=O)N[C@@H]3CCc4cc(N5CC6CCC(C5)N6)c(F)cc4C3)sc2n1 (single isomer, unassigned) [Example 21-3] | 0.05 to 0.2
39 | Cc1ccc2c(N)c(C(=O)N[C@H]3CCc4cc(N5CC6CCC(C5)N6)c(F)cc4C3)sc2n1 (single isomer, unassigned) [Example 21-4] | > 2
40 | Cc1ccc2c(N)c(C(=O)N[C@@H]3CCc4c(ccc(N5CCNCC5)c4F)C3)sc2n1 (single isomer, unassigned) [Example 21-5] | 0.05 to 0.2
41 | Cc1ccc2c(N)c(C(=O)N[C@H]3CCc4c(ccc(N5CCNCC5)c4F)C3)sc2n1 (single isomer, unassigned) [Example 21-6] | > 2
42 | Cc1ccc2c(N)c(C(=O)N[C@@H]3CCc4cc(N5CCNCC5)c(F)cc4C3)sc2n1 (single isomer, unassigned) [Example 21-7] | 0.2 to 2
43 | Cc1ccc2c(N)c(C(=O)N[C@H]3CCc4cc(N5CCNCC5)c(F)cc4C3)sc2n1 (single isomer, unassigned) [Example 21-8] | > 2
44 | Cc1ccc2c(N)c(C(=O)N[C@H]3CCc4c(F)c(N5CCNCC5)cc(F)c4C3)sc2n1 (single isomer, unassigned) [Example 22-1] | > 2
45 | Cc1ccc2c(N)c(C(=O)N[C@@H]3CCc4c(F)c(N5CCNCC5)cc(F)c4C3)sc2n1 (single isomer, unassigned) [Example 22-2] | 0.05 to 0.2
